{
  "source": "patent US7993687B2",
  "about": "“Compositions and methods for management of diabetes” (priority 2006, dated 2011)",
  "format_in_all_cases": "cell-based, rat",
  "key": {"[1]": {"tested_on": "Insulin receptor (Tyr1146)", "test": "Western blot of insulin receptor phosphorylation in H4IIE cells", "conditions": "6 minutes", "description": "(§1) Tissue culture media, antibiotics, fetal bovine serum (FBS) and Nunc tissue culture plates were purchased from Invitrogen Canada Inc. (Burlington, Ontario, Canada, L7P 1A1). Insulin (Sigma-Aldrich Canada Ltd., Oakville, Ontario, Canada, L6H 6J8) was dissolved in water and added directly to cells at a concentration of 250 nM unless otherwise indicated. The BWE was prepared and analyzed as described in Example 1. Two μL of the BWE were added directly to cells unless otherwise indicated. This amount was chosen on the basis of equivalence to insulin. Myo-inositol (Sigma-Aldrich Canada Ltd.) and D-chiro-inositol (Industrial Research Ltd., Wellington, New Zealand) were dissolved in water at an equal concentration to the amounts present in the BWE (Table 3) and 2 μL of each solution (0.1% v/v final concentration) was added directly to cells.\n(§2) Rat H4IIE hepatoma cells (American Type Culture Collection, CRL 1548) were cultured following the method disclosed by Yau et al., (1998, Eur. J. Biochem. 253: 91-1). The H4IIE cells were maintained in α-modified Eagle's media containing 10% FBS, 2 mM glutamine, 25 μg·mL^−1 streptomycin and 25 units·mL^−1 penicillin. Cells were plated and grown to 70% confluence. All cells were placed into serum-free medium for 72 h before addition of stimulating agents to ensure entry into a quiescent state. […]\n(§3) Cellular protein extracts were prepared by addition of 200 μL 2×SDS/gel loading buffer (0.125 M Tris pH 6.8, 2% SDS, 10% glycerol) to H4IIE cells in 12-well culture dishes. The samples were briefly sonicated, and protein content measured using the BCA protein assay kit. […] HRP was detected using the ECL chemiluminescent system after the membranes had been washed four times.\n(§4) Quantification of data obtained on film (Kodak X-omat) was accomplished with a GS800 imaging densitometer (Bio-Rad Laboratories) under nonsaturating conditions with local background subtraction. […]"}, "[2]": {"tested_on": "STAT3 (Tyr705)", "test": "Western blot of STAT3 phosphorylation in H4IIE cells", "conditions": "6 minutes", "description": "as §1, §2, §3, §4"}, "[3]": {"tested_on": "Akt (Ser473)", "test": "Western blot of Akt phosphorylation in H4IIE cells", "conditions": "6 minutes", "description": "as §1, §2, §3, §4"}, "[4]": {"tested_on": "GSK3 (Ser21/9)", "test": "Western blot of GSK3 phosphorylation in H4IIE cells", "conditions": "6 minutes", "description": "as §1, §2, §3, §4"}, "[5]": {"tested_on": "mitogen-activated protein kinase (MAPK)", "test": "Western blot of MAPK phosphorylation in FAO hepatoma cells", "description": "FAO cells are related to H4IIE since both cell lines were derived from Reuber H35 cells (Richardson et al., 1969, J. Cell Biol. 40: 236-247). […] FAO hepatoma cells were propagated under the same culture conditions used for H4IIE cells. Quiescent FAO cells were obtained by placing the cells into serum-free medium for 3 days.\nCultures of quiescent H4IIE cells or quiescent FAO cells were placed into 12-well culture dishes containing 2 mL serum-free medium, and then stimulated by direct addition of the inhibitors listed in Table 1 (volumes of additions were 10 μL or less) without replacing the medium. Inhibitors were added 10 minutes before the stimulating agents except for pertussis toxin which was added 4 hours prior. The cells in 12-well culture dishes were incubated with stimulating agents for 6 minutes and rinsed with phosphate buffered saline (PBS; 0.9% NaCl, 0.1 M Na3PO4, pH 7.1).\nCellular protein extracts were prepared by addition of 200 μL 2×SDS/gel loading buffer (0.125 M Tris pH 6.8, 2% SDS, 10% glycerol) to H4IIE cells in 12-well culture dishes. The samples were briefly sonicated, and protein content measured using the BCA protein assay kit. Aliquots containing equal amounts of protein were mixed with bromophenol blue (0.5% (w/v) final concentration) and 2-mercaptoethanol (5% (v/v) final concentration), heated at 95° C. and loaded onto 7.5% or 10% polyacrylamide gels. […] Primary antibodies (diluted 1:1000 in 3% (w/v) BSA) were incubated with the membrane for 60 min at 22° C. Membranes were subsequently washed four times and incubated for an additional 60 min at 1 8-22° C. in 1% (w/v) BSA-TBST with diluted HRP-coupled secondary antibody (1:10 000). HRP was detected using the ECL chemiluminescent system after the membranes had been washed four times.\nas §4"}, "[6]": {"tested_on": "Src (Tyr527)", "test": "Western blot of Src phosphorylation in H4IIE cells", "conditions": "6 minutes", "description": "as §1, §2, §3, §4"}},
  "note": "“Also recorded” adds a separate entry of the source.",
  "data": [
    {"molecule": "insulin: Insulin (Sigma-Aldrich) dissolved in water, positive comparator", "values": [
      {"measurement": "phosphorylation of InsR", "setting": "[1]", "result": "phosphorylated in response to insulin; also recorded: stimulated by insulin only"},
      {"measurement": "phosphorylation of STAT3", "setting": "[2]", "result": "phosphorylated in response to insulin"},
      {"measurement": "phosphorylation of Akt", "setting": "[3]", "result": "phosphorylated in response to insulin"},
      {"measurement": "phosphorylation of GSK3", "setting": "[4]", "result": "phosphorylated in response to insulin"},
      {"measurement": "phosphorylation of MAPK in FAO cells (FIG. 10)", "setting": "[5]", "result": "stimulated MAPK phosphorylation"},
      {"measurement": "phosphorylation of Src", "setting": "[6]", "result": "phosphorylated in response to insulin"}
    ]},
    {"molecule": "OC1C(O)C(O)C(O)C(O)C1O", "note": "[D-CI, D-chiro-inositol]", "values": [
      {"measurement": "phosphorylation of InsR", "setting": "[1]", "result": "do not provide comparable stimulation"},
      {"measurement": "phosphorylation of STAT3", "setting": "[2]", "result": "do not provide comparable stimulation"},
      {"measurement": "phosphorylation of Akt", "setting": "[3]", "result": "do not provide comparable stimulation"},
      {"measurement": "phosphorylation of GSK3", "setting": "[4]", "result": "do not provide comparable stimulation"},
      {"measurement": "phosphorylation of MAPK in FAO cells (FIG. 10)", "setting": "[5]", "result": "did not"},
      {"measurement": "phosphorylation of Src", "setting": "[6]", "result": "do not provide comparable stimulation"}
    ]},
    {"molecule": "O[C@H]1[C@H](O)[C@@H](O)[C@H](O)[C@@H](O)[C@H]1O", "note": "[MI, myo-inositol]", "values": [
      {"measurement": "phosphorylation of InsR", "setting": "[1]", "result": "do not provide comparable stimulation"},
      {"measurement": "phosphorylation of STAT3", "setting": "[2]", "result": "do not provide comparable stimulation"},
      {"measurement": "phosphorylation of Akt", "setting": "[3]", "result": "do not provide comparable stimulation"},
      {"measurement": "phosphorylation of GSK3", "setting": "[4]", "result": "do not provide comparable stimulation"},
      {"measurement": "phosphorylation of MAPK in FAO cells (FIG. 10)", "setting": "[5]", "result": "did not"},
      {"measurement": "phosphorylation of Src", "setting": "[6]", "result": "do not provide comparable stimulation"}
    ]}
  ]
}
